Test results: patent publication US8664209B2, “Daptomycin for multiple sclerosis” (priority 2009, dated 2014)
Like-named read-outs stand apart in the source and are kept apart here.

Columns and labels:
Format in all cases: in vivo, human
[1] = system: patients with progressive and relapsing forms of multiple sclerosis
Description: Seventeen patients with relapsing remitting (4 patients) and chronic progressive multiple sclerosis […] have received daptomycin therapy at 4 mg/kg IV for periods ranging from five to 21 days. This patient group included Patient A and Patient B from the above examples.
Four out of seventeen patients have received daptomycin for acute relapses, after not responding to, or wishing to be taken of, solumedrol therapy.
Thirteen patients with chronic progressive multiple sclerosis received daptomycin therapy for symptoms of multiple sclerosis that were progressing, or to improve present symptoms. […] In all chronic progressive patients who report responses to the drug, maintenance doses starting with once a week with or without the addition of intravenous corticosteroids are given. Doses of daptomycin 2 mg/kg are given to patients who report fatigue as a significant side effect.
Overall, in the same study, daptomycin was administered to a total of 30 patients. 14 responded to treatment (47%).
Daptomycin was administered as a daily IV infusion at 3 mg/kg, 4 mg/kg or 6 mg/kg as per standard guidelines for 5 to 21 days, then as a maintenance dose of 3 mg/kg, 4 mg/kg or 6 mg/kg once every one to four weeks. Patients were monitored by telephone calls. CPK levels were done as clinically indicated. Patients were selected on the basis of failure or intolerance on other treatments and continued disease activity.

[2] = system: person with multiple sclerosis with almost weekly relapses; assay: Patient B case: daptomycin for relapses (Example 2); settings: for ambulation: acute relapse (nonambulatory)
From the text: This is described in more detail in Example 2. Patient B is a person who was first diagnosed with multiple sclerosis in 1981. The course of their illness was characterized through the years by increasingly frequent relapses and progressive disability. They had initially been treated with azathioprine and, subsequently with interferons, including Betaseron™ and Avonex®, and Copaxone®. As adjunct treatments, they received innumerable courses of intravenous methylprednisolone, as well as cyclophosphamide, since 2005. In addition, they have also received mycophenylate mofetil, plasma exchange monthly, intravenous immunoglobulin monthly, natalizumab, daclizumab and rituximab. None of these regimens adequately controlled their many relapses, which were characterized by worsening gait and appendicular ataxia, weakness in their limbs, vertigo and diplopia and severe migraine headaches. In late 2008 and 2009, they were hospitalized seven times for relapses. Since 2005, they had received more than 50 courses of steroid and/or cyclophosphamide treatments for relapses not requiring hospitalization. These treatments would induce partial and short lasting remissions. During 2009, they were having relapses on a weekly basis. During remissions, they were able to walk only with a walker. Daptomycin 4 mg/kg intravenously [hereinafter “IV”] was administered to patient B for five days for an acute relapse which made the patient nonambulatory. […] They did have an allergic reaction with chest tightness and blistering at the injection site that was determined to be caused by the tape securing their IV catheter. […] Daptomycin 4 mg/kg/IV was administered for five additional days with pretreatment with solumedrol in the total amount of 100 mg IV and diphenhydramine in the total amount of 50 mg IV with improvement. Daptomycin was then ordered 4 mg/kg/IV once a week. Three days after their first weekly dose, they began to feel more off balanced and their headache became more severe. Daptomycin orders were revised to 4 mg/kg IV once a week in co-administration with solumedrol 1 gram IV.

[3] = system: person with secondary progressive multiple sclerosis (SPMS); assay: Patient A case: daptomycin given for MRSA infection (Examples 1, 3); settings: for muscle and nerve pain, muscle stiffness: patient-reported
From the text: The novel use of daptomycin in the treatment and/or prevention of multiple sclerosis in mammals, particularly human, is based on the recent observation of a patient (Patient A) with multiple sclerosis whose progressive neurological disability stabilized after treatment with daptomycin for skin infections caused by methicillin resistant Staphalococcus aureus. Previously, their neurological disability had progressed despite treatment with standard FDA approved therapies as well as investigational therapies, some of which they developed severe allergic reactions to. […] More detail about Patient A is provided in Example 3. Patient A is a person who has suffered from multiple sclerosis. Their disease started with left arm and leg weakness. During the early course of the disease, they experienced frequent relapses. Progressive relapsing continued, with increasing lower extremity weakness. The patient characterized their left arm as feeling like dead weight. Patient A developed diverticulitis in 2006. Their EDSS (Expanded Disability Status Scale) was 5.5 in February, 2007, i.e., patient was able to walk 100 meters without aid or rest; their EDSS was 6.0 by the end of the year, i.e., patient required intermittent or constant assistance with a cane, crutch or brace to walk 100 meters. Daptomycin therapy was initiated to treat a MRSA infection after Patient A had knee surgery. They received a daptomycin dose of 100 mg for four weeks. Three months later, they had re-treatment with 500 mg daily for about four weeks.

[4] = RPMS (relapsing progressive MS)
[5] = patient thirteen, SPMS, DD 4 yrs, EDSS pretx 4, 4 mg/kg/d × five days (relapse), status D (discontinued)
[6] = secondary progressive MS (SPMS)
[7] = Patient A, listed as daptomycin

CCCCCCCCCC(=O)N[C@@H](Cc1c[nH]c2ccccc12)C(=O)N[C@H](CC(N)=O)C(=O)N[C@@H](CC(=O)O)C(=O)N[C@@H]1C(=O)NCC(=O)N[C@@H](CCCN)C(=O)N[C@@H](CC(=O)O)C(=O)N[C@H](C)C(=O)N[C@@H](CC(=O)O)C(=O)NCC(=O)N[C@H](CO)C(=O)N[C@@H]([C@H](C)CC(=O)O)C(=O)N[C@@H](CC(=O)c2ccccc2N)C(=O)O[C@@H]1C [Daptomycin, N-decanoyl-L-trypotophyl-D-asparaginyl-L-aspartyl-L-threonylglycyl-L-ornithyl-L-aspartyl-D-alanyl-L-aspartylglycyl-D-seryl-threo-3-methyl-L-glutamyl-3-anthraniloyl-L-alanine ε1-lactone] was tested, and the subgroup response [1, 4] was 0%, the “subgroup response (responders/treated)” value [1, 4] was 0/2 and the “patient-reported strength and sensation” value ([1]; four out of seventeen patients given daptomycin for acute relapses, 4 mg/kg IV) was “Three patients reported improvement in their strength and sensation”. For the same compound, the “creatine phosphokinase level (CPK)” value ([1]; human, in vivo) was 217, the hospitalizations ([1]; human, in vivo) was “Two patients were hospitalized for confusion and increased symptoms” and the “most common side effect during the course of therapy” value ([1]; human, in vivo) was “fatigue”. For the same compound, the “fatigue associated with therapy” value ([1]; human, in vivo, iv, 4 mg/kg) was “Three patients noted that daptomycin therapy was associated with significant fatigue”, the “EDSS (last)” value ([1]; patient eight, SPMS, DD 12 yrs, EDSS pretx 7, 4 mg/kg × one dose, status D (discontinued)) was 7 and the “EDSS (last)” value ([1]; patient eighteen, SPMS, DD 5 yrs, EDSS pretx 6, 4 mg/kg × 5 days, then 4 mg/kg q week, status D (discontinued)) was 6. The “EDSS (last)” value ([1]; patient eleven, SPMS, DD 24 yrs, EDSS pretx 6.5, 4 mg/kg/day × 14 days (relapse), status D (discontinued)) was 6.5, the “EDSS (last)” value ([1]; patient fifteen, SPMS, DD 25 yrs, EDSS pretx 6.5, 4 mg/kg/d × 5 days (two courses), 4 mg/kg/week, status A (active)) was 6.5 and the “EDSS (last)” value ([1]; patient five, RRMS, DD 7 yrs, EDSS pretx 2.5, 4 mg/kg/day × 5 days, status D (discontinued)) was 2.5. For the same compound, the “EDSS (last)” value ([1]; patient four, RRMS, DD 15 yrs, EDSS pretx 2.5, 4 mg/kg/d × 14 days, then 4 mg/kg/q 1-2 wks, status D (discontinued)) was 2, the “EDSS (last)” value ([1]; patient fourteen, SPMS, DD 9 yrs, EDSS pretx 6, 4 mg/kg × 5 days, then 4 mg/kg q 2 wks, status A (active)) was 6 and the “EDSS (last)” value ([1]; patient nine, SPMS, DD 13 yrs, EDSS pretx 6.5, 4 mg/kg/d × 5 days, 4 mg/kg q 2 wks, status A (active)) was 6.5. For the same compound, the “EDSS (last)” value ([1]; patient nineteen, SPMS, DD 21 yrs, EDSS pretx 6.5, 4 mg/kg × 21 days. D/Ced p 2½ wks, status D (discontinued)) was 6.5, the “EDSS (last)” value ([1]; patient one, TMS, DD 12 yrs, EDSS pretx 6, 4 mg/kg × 21 days, status D (discontinued)) was 6 and the “EDSS (last)” value ([1]; patient seven, RRMS, DD 6 yrs, EDSS pretx 3.5, 4 mg/kg/d × 14 days, status D (discontinued)) was 3.5. The “EDSS (last)” value ([1]; patient seventeen, RRMS, DD 7 yrs, EDSS pretx 0, 4 mg/kg/d × 3 days, then 4 mg/kg/week, status A (active)) was 1, the “EDSS (last)” value ([1]; patient six, RPMS, DD 12 yrs, EDSS pretx 6, 4 mg/kg/d × 3 days, then 4 mg/kg/week, status D (discontinued)) was 6 and the “EDSS (last)” value ([1]; patient sixteen, PPMS, DD 18 yrs, EDSS pretx 8.5, 4 mg/kg/d × 15 days, the 4 mg/kg/week, status D (discontinued)) was 8.5. The “EDSS (last)” value ([1]; patient ten, RRMS, DD 15 yrs, EDSS pretx 3, 4 mg/kg/d × 16 days, 4 mg/kg/wk × 4, then 4 mg/kg/q o wk, status A (active)) was 3, the “EDSS (last)” value [1, 5] was 3.5 and the Outcome [1, 5] was “No benefit”. The “EDSS (last)” value ([1]; patient thirty, SPMS, DD 17 yrs, EDSS pretx 6, 4 mg/kg/d × 10 days, status D (discontinued)) was 6, the “EDSS (last)” value ([1]; patient three, RPMS, DD 18 yrs, EDSS pretx 6.5, 4 mg/kg/d × 5 days, status D (discontinued)) was 6.5 and the “EDSS (last)” value ([1]; patient twelve, SPMS, DD 9 yrs, EDSS pretx 4, 4 mg/kg × 21 days, status D (discontinued)) was 4. The “EDSS (last)” value ([1]; patient twenty, SPMS, DD 16 yrs, EDSS pretx 6.5, 4 mg/kg/day × 21 days, then 4 mg/kg q 2 weeks, status A (active)) was 6.5, the “EDSS (last)” value ([1]; patient twenty-eight, SPMS, DD 15 yrs, EDSS pretx 6.5, 4 mg/kg/d × 10 days, then 4 mg/kg/wk, status A (active)) was 6 and the “EDSS (last)” value ([1]; patient twenty-five, SPMS, DD 6 yrs, EDSS pretx 6.5, 4 mg/kg/d × 5 days, status D (discontinued)) was 7. The “EDSS (last)” value ([1]; patient twenty-four, SPMS, DD 15 yrs, EDSS pretx 6.5, 4 mg/kg/d × 10 days, then 4 mg/kg/wk, status A (active)) was 6.5, the “EDSS (last)” value ([1]; patient twenty-nine, SPMS, DD 16 yrs, EDSS pretx 6.5, 4 mg/kg × 21 days, then 4 mg/kg q 2 wks, status A (active)) was 6.5 and the “EDSS (last)” value ([1]; patient twenty-one, SPMS, DD 11 yrs, EDSS pretx 5.5, 4 mg/kg/day × 21 days, 4 mg/kg q wk. 6 mg/kg/d times 14 days, status D (discontinued)) was 6. For the same compound, the “EDSS (last)” value ([1]; patient twenty-seven, SPMS, DD 10 yrs, EDSS pretx 6, 4 mg/kg/d × 5 days, 2 mg/kg q 2 wks, status A (active)) was 6, the “EDSS (last)” value ([1]; patient twenty-six, TMS, DD 23 yrs, EDSS pretx 4, 4 mg/kg/d × 14 days, status D (discontinued)) was 4 and the “EDSS (last)” value ([1]; patient twenty-three, RRMS, DD 11 yrs, EDSS pretx 2, 4 mg/kg × 5 days (relapse). Repeated 3 mos later (relapse), status D (discontinued)) was 2.5. The “EDSS (last)” value ([1]; patient twenty-two, SPMS, DD 6 yrs, EDSS pretx 6.5, 4 mg/k/d × 5 days, status D (discontinued)) was 6.5, the “EDSS (last)” value ([1]; patient two, SPMS, DD 11 yrs, EDSS pretx 6, 500 mg IV × 5 weeks, 4 mg/kg × 4 wks, 4 mg/kg q wk, status A (active)) was 2.5 and the “patients showing clinically significant improvement in symptoms of multiple sclerosis” value ([1]; patients with progressive and relapsing MS unresponsive to multiple therapies) was 47%. For the same compound, the subgroup response ([1]; primary progressive MS (PPMS)) was 0%, the “subgroup response (responders/treated)” value ([1]; primary progressive MS (PPMS)) was 0/1 and the subgroup response ([1]; relapsing remitting MS (RRMS)) was 50%. The “subgroup response (responders/treated)” value ([1]; relapsing remitting MS (RRMS)) was 3/6, the subgroup response [1, 6] was 47% and the “subgroup response (responders/treated)” value [1, 6] was 9/19. For the same compound, the patient-reported strength ([1]; thirteen patients with chronic progressive multiple sclerosis, 4 mg/kg IV) was “Nine patients reported better strength”, the “patients who responded to treatment” value ([1]; total of 30 patients) was 47% and the “patients who responded to treatment (number)” value ([1]; total of 30 patients) was 14. For the same compound, the subgroup response ([1]; transitional MS (TMS)) was 100%, the “subgroup response (responders/treated)” value ([1]; transitional MS (TMS)) was 2/2 and the ambulation ([2]; 4 mg/kg IV for five days, third day) was “able to walk with their walker”. For the same compound, the ambulation ([2]; 4 mg/kg IV, after five days) was “able to take a few steps without their walker”, the “duration of stability after initial course” value ([2]; after initial 4 mg/kg IV for five days, then recurrence of ataxia and increased headaches, less severe) was “stable for approximately one week” and the response of relapses ([2]; consecutive courses of daptomycin for three to five days) was “respond very rapidly”. The frequency of relapses ([2]; daptomycin at regular intervals (4 mg/kg IV once a week with solumedrol 1 gram IV)) was “marked decrease in the frequency of their relapses”, the “frequency of relapses and neurological disability” value ([2]; intravenous daptomycin 4 mg/kg) was “stabilized both in terms of the frequency of their relapses and neurological disability” and the “left upper extremity strength, sensation, numbness” value ([3]; Patient A) was “numbness in their left arm was improved”. The walking ([3]; Patient A, after the first daptomycin treatment (100 mg for four weeks)) was “slight improvement in walking”, the “gait / need of cane” value ([3]; Patient A, after the second treatment (500 mg daily about four weeks)) was “did not require their cane, but could walk unassisted” and the progressive neurological disability ([3]; Patient A, after treatment with daptomycin for MRSA skin infections) was “stabilized”. For the same compound, the walking ([3]; Patient A, during and after treatment) was “able to walk extended distances without their cane”, the “EDSS (Expanded Disability Status Scale)” value ([3]; Patient A, four weeks after discontinuing daptomycin, EDSS was 6.0 before, 100 mg for four weeks, re-treatment 500 mg daily about four weeks) was 2.5 and the “muscle and nerve pain, muscle stiffness” value ([3]; Patient A) was “improvement in muscle pain and stiffness”. For the same compound, the “muscle and nerve pain, muscle stiffness” value [3, 7] was “significant decrease in their muscle and nerve pain as well as muscle stiffness”, the “left upper extremity strength, sensation, numbness” value [3, 7] was “increase in strength and sensation of their left upper extremity” and the functional improvement ([3]; person with SPMS poorly responsive to other therapies) was “dramatic and sustained functional improvement”.
